How the values were obtained:
wheat = assay: Test A pre-/postemergence greenhouse test; type: in vivo, Triticum aestivum; details: for Plant response rating, Wheat: 0 to 100 scale where 0 is no effect and 100 is complete control; for Wheat plant response rating: 0 to 100 scale
In short: (§1)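 Pre: directed soil spray on seeded loam/sand. Post: foliar spray, plants 2–10 cm, 1–2 leaf stage, applied concurrently. Vehicle: non-phytotoxic solvent + surfactant. Greenhouse ~10 d; visual injury rating vs untreated controls.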

crabgrass [1] = assay: Test A pre-/postemergence greenhouse test; type: in vivo, Digitaria sanguinalis; details: for Plant response rating, Crabgrass, Large: 0 to 100 scale where 0 is no effect and 100 is complete control; for Crabgrass, Large plant response rating: 0 to 100 scale
In short: as §1

pigweed = assay: Test C pre-/postemergence test; type: in vivo, Amaranthus retroflexus; details: for Plant response rating (0 to 100), Pigweed / Plant response rating, Pigweed: Postemergence; for Plant response rating, Pigweed: scale 0 to 100, 0 no effect, 100 complete control
In short: (§2)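 Seeds were planted and treated preemergence with test chemical in a non-phytotoxic solvent mixture containing surfactant. Postemergence applications of the same formulation went onto plants 2 to 18 cm tall (1- to 4-leaf stage). A dash marks no test result.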

corn [2] = assay: Test C pre-/postemergence test; type: in vivo, Zea mays
In short: as §2

velvetleaf = assay: Test C pre-/postemergence test; type: in vivo, Abutilon theophrasti
In short: as §2

johnsongrass = assay: Test C pre-/postemergence test; type: in vivo, Sorghum halepense
In short: as §2

corn [3] = assay: Test A pre-/postemergence greenhouse test; type: in vivo, Zea mays; details: for Plant response rating, Corn: 0 to 100 scale where 0 is no effect and 100 is complete control; for Corn plant response rating: 0 to 100 scale
In short: as §1

umbrella sedge = assay: Test C flooded paddy test; type: in vivo, Cyperus difformis; details: Flood
In short: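 Under a constant 3 cm flood, test compounds went directly into the paddy water. Following 13 to 15 days of greenhouse growth, treated species and controls were compared by eye.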

morningglory = assay: Test C pre-/postemergence test; type: in vivo, Ipomoea coccinea
In short: as §2

crabgrass [4] = assay: Test C pre-/postemergence test; type: in vivo, Digitaria sanguinalis
In short: as §2

eastern black nightshade = assay: Test C pre-/postemergence test; type: in vivo, Solanum ptycanthum
In short: as §2

giant foxtail = assay: Test C pre-/postemergence test; type: in vivo, Setaria faberii
In short: as §2

[5] = test system: common (oilseed) sunflower; assay: Test C pre-/postemergence test; type: in vivo, Helianthus annuus
In short: as §2

Italian ryegrass = assay: Test C pre-/postemergence test; type: in vivo, Lolium multiflorum; details: for Ryegrass, Italian plant response rating: preemergence, scale 0 (no effect) to 100 (complete control)
In short: as §2

barnyardgrass = assay: Test A pre-/postemergence greenhouse test; type: in vivo, Echinochloa crus-galli; details: for Plant response rating, Barnyardgrass: 0 to 100 scale where 0 is no effect and 100 is complete control; for Barnyardgrass plant response rating: 0 to 100 scale
In short: as §1

Surinam grass = assay: Test C pre-/postemergence test; type: in vivo, Brachiaria decumbens; details: for Plant response rating (0 to 100), Surinam Grass: Postemergence
In short: as §2

Goosegrass = assay: Test C pre-/postemergence test; type: in vivo, Eleusin indica
In short: as §2

[6] = Postemergence, 500 g ai/ha, 0 is no effect, 100 is complete control
[7] = Preemergence, 125 g ai/ha, 0 no effect, 100 complete control
[8] = 62 g ai/ha, Preemergence, scale 0 to 100
[9] = 125 g ai/ha, preemergence, scale 0 (no effect) to 100 (complete control)
[10] = preemergence, 250 g ai/ha, scale 0 (no effect) to 100 (complete control)
[11] = Postemergence, 125 g ai/ha, scale 0 to 100, 0 no effect, 100 complete control
[12] = Postemergence, 250 g ai/ha, scale 0 to 100, 0 no effect, 100 complete control
[13] = Preemergence, 31 g ai/ha, scale 0 to 100 (0 no effect, 100 complete control)

Question: Which results are given for `CC(Oc1c(CS(=O)(=O)c2cccc[n+]2[O-])c(C(F)(F)F)nn1C)C(F)(F)F` (stereo not drawn) [Compound 82]?
Answer: Plant response rating, Wheat (wheat; Postemergence, 125 g ai/ha): 30; Wheat plant response rating (wheat; [6]): 60; Wheat plant response rating (wheat; [7]): 30; Plant response rating, Wheat (wheat; Preemergence, 500 g ai/ha): 70; Plant response rating, Crabgrass, Large (crabgrass [1]; Postemergence, 125 g ai/ha): 80; Crabgrass, Large plant response rating (crabgrass [1]; [6]): 90; Crabgrass, Large plant response rating (crabgrass [1]; [7]): 80; Plant response rating, Crabgrass, Large (crabgrass [1]; Preemergence, 500 g ai/ha): 100; Pigweed plant response rating (pigweed; [8]): 85; Pigweed plant response rating (pigweed; [9]): 100; Plant response rating (0 to 100), Pigweed (pigweed; 31 g ai/ha): 0; Plant response rating (0 to 100), Pigweed (pigweed; 62 g ai/ha): 0; Plant response rating, Pigweed (pigweed; 125 g ai/ha): 0; Plant response rating, Pigweed (pigweed; 250 g ai/ha): 10; Pigweed plant response rating (pigweed; [10]): 100; Corn plant response rating (corn [2]; [8]): 40; Corn plant response rating (corn [2]; [9]): 70; Plant response rating (0 to 100), Corn (corn [2]; Postemergence, 31 g ai/ha): 0; Plant response rating (0 to 100), Corn (corn [2]; Postemergence, 62 g ai/ha): 0; Plant response rating, Corn (corn [2]; [11]): 0; Plant response rating, Corn (corn [2]; [12]): 0; Plant response rating, Corn (corn [2]; [13]): 40; Corn plant response rating (corn [2]; [10]): 80; Velvetleaf plant response rating (velvetleaf; [8]): 80; Velvetleaf plant response rating (velvetleaf; [9]): 80; Plant response rating (0 to 100), Velvetleaf (velvetleaf; Postemergence, 31 g ai/ha): 0; Plant response rating (0 to 100), Velvetleaf (velvetleaf; Postemergence, 62 g ai/ha): 0; Plant response rating, Velvetleaf (velvetleaf; [11]): 0; Plant response rating, Velvetleaf (velvetleaf; [12]): 20; Plant response rating, Velvetleaf (velvetleaf; [13]): 0; Velvetleaf plant response rating (velvetleaf; [10]): 100; Johnsongrass plant response rating (johnsongrass; [8]): 80; Johnsongrass plant response rating (johnsongrass; [9]): 80; Plant response rating (0 to 100), Johnsongrass (johnsongrass; Postemergence, 31 g ai/ha): 0; Plant response rating (0 to 100), Johnsongrass (johnsongrass; Postemergence, 62 g ai/ha): 0; Plant response rating, Johnsongrass (johnsongrass; [11]): 10; Plant response rating, Johnsongrass (johnsongrass; [12]): 40; Plant response rating, Johnsongrass (johnsongrass; [13]): 40; Johnsongrass plant response rating (johnsongrass; [10]): 100; Plant response rating, Corn (corn [3]; Postemergence, 125 g ai/ha): 0; Corn plant response rating (corn [3]; [6]): 20; Corn plant response rating (corn [3]; [7]): 0; Plant response rating, Corn (corn [3]; Preemergence, 500 g ai/ha): 50; Plant response rating, Sedge, Umbrella (umbrella sedge; 62 g ai/ha, scale 0 to 100 (0 no effect, 100 complete control)): 100; Plant response rating, Sedge, Umbrella (umbrella sedge; 250 g ai/ha, scale 0 to 100, 0 no effect, 100 complete control, 13 to 15 days): 100; Morningglory plant response rating (morningglory; [8]): 70; Morningglory plant response rating (morningglory; [9]): 98; Plant response rating (0 to 100), Morningglory (morningglory; Postemergence, 31 g ai/ha): 0; Plant response rating (0 to 100), Morningglory (morningglory; Postemergence, 62 g ai/ha): 0; Plant response rating, Morningglory (morningglory; [11]): 0; Plant response rating, Morningglory (morningglory; [12]): 0; Plant response rating, Morningglory (morningglory; [13]): 0; Morningglory plant response rating (morningglory; [10]): 100; Crabgrass, Large plant response rating (crabgrass [4]; [8]): 85; Crabgrass, Large plant response rating (crabgrass [4]; [9]): 98; Plant response rating (0 to 100), Crabgrass, Large (crabgrass [4]; Postemergence, 31 g ai/ha): 0; Plant response rating (0 to 100), Crabgrass, Large (crabgrass [4]; Postemergence, 62 g ai/ha): 0; Plant response rating, Crabgrass, Large (crabgrass [4]; [11]): 0; Plant response rating, Crabgrass, Large (crabgrass [4]; [12]): 10; Plant response rating, Crabgrass, Large (crabgrass [4]; [13]): 85; Crabgrass, Large plant response rating (crabgrass [4]; [10]): 100; Nightshade plant response rating (eastern black nightshade; [8]): 40; Nightshade plant response rating (eastern black nightshade; [9]): 80; Plant response rating, Nightshade (eastern black nightshade; [13]): 0; Nightshade plant response rating (eastern black nightshade; [10]): 100; Foxtail, Giant plant response rating (giant foxtail; [8]): 85; Foxtail, Giant plant response rating (giant foxtail; [9]): 100; Plant response rating (0 to 100), Foxtail, Giant (giant foxtail; Postemergence, 31 g ai/ha): 0; Plant response rating (0 to 100), Foxtail, Giant (giant foxtail; Postemergence, 62 g ai/ha): 0; Plant response rating, Foxtail, Giant (giant foxtail; [11]): 40; Plant response rating, Foxtail, Giant (giant foxtail; [12]): 40; Plant response rating, Foxtail, Giant (giant foxtail; [13]): 70; Foxtail, Giant plant response rating (giant foxtail; [10]): 100; Sunflower plant response rating [5, 8]: 0; Sunflower plant response rating [5, 9]: 45; Plant response rating, Sunflower [5, 13]: 0; Sunflower plant response rating [5, 10]: 50; Ryegrass, Italian plant response rating (Italian ryegrass; 125 g ai/ha): 80; Plant response rating (0 to 100), Ryegrass, Italian (Italian ryegrass; Postemergence, 31 g ai/ha): 0; Plant response rating (0 to 100), Ryegrass, Italian (Italian ryegrass; Postemergence, 62 g ai/ha): 0; Plant response rating, Ryegrass, Italian (Italian ryegrass; [11]): 85; Plant response rating, Ryegrass, Italian (Italian ryegrass; [12]): 90; Plant response rating, Ryegrass, Italian (Italian ryegrass; [13]): 75; Ryegrass, Italian plant response rating (Italian ryegrass; 250 g ai/ha): 100; Plant response rating, Barnyardgrass (barnyardgrass; Postemergence, 125 g ai/ha): 70; Barnyardgrass plant response rating (barnyardgrass; [6]): 80; Barnyardgrass plant response rating (barnyardgrass; [7]): 90; Plant response rating, Barnyardgrass (barnyardgrass; Preemergence, 500 g ai/ha): 100; Surinam Grass plant response rating (Surinam grass; [8]): 80; Surinam Grass plant response rating (Surinam grass; [9]): 90; Plant response rating (0 to 100), Surinam Grass (Surinam grass; 31 g ai/ha): 0; Plant response rating (0 to 100), Surinam Grass (Surinam grass; 62 g ai/ha): 0; Plant response rating, Surinam Grass (Surinam grass; [13]): 70; Surinam Grass plant response rating (Surinam grass; [10]): 90; Goosegrass plant response rating (Goosegrass; [8]): 100; Goosegrass plant response rating (Goosegrass; [9]): 100; Plant response rating (0 to 100), Goosegrass (Goosegrass; Postemergence, 31 g ai/ha): 0; Plant response rating (0 to 100), Goosegrass (Goosegrass; Postemergence, 62 g ai/ha): 0; Plant response rating, Goosegrass (Goosegrass; [11]): 10; Plant response rating, Goosegrass (Goosegrass; [12]): 40; Plant response rating, Goosegrass (Goosegrass; [13]): 90; Goosegrass plant response rating (Goosegrass; [10]): 100

Reference: patent publication US20100298141A1, “SUBSTITUTED PYRIDINE N-OXIDE HERBICIDES” (E. I. DU PONT DE NEMOURS AND COMPANY, priority 2007, published 2010)
